Data: publication PMC3793267 (Biomarkers, 2008)

Assays:
rat plasma albumin [1] = molecular target: T1, rat plasma albumin (Rattus norvegicus, UniProt P02770); assay: biochemical; format: binding
rat plasma albumin [2] = molecular target: T1, rat plasma albumin; assay: Plasma albumin binding by pesticide in vivo after oral dosing of rats; parameters: species or system F344 rats; details: for inhibition of binding of the ^3H-DFP-radiolabelled albumin molecules in vivo: 25% of LD50, plasma 1 day after dosing
erythrocyte AChE [3] = molecular target: erythrocyte AChE (Rattus norvegicus, UniProt P37136); assay: Erythrocyte AChE inhibition after oral dosing of rats; format: in vivo, F344 rats
rats = assay: Clinical signs in rats after oral dosing
Erythrocyte AChE [4] = details: steady (linear) recovery; ref Mason [2000]; cited from earlier work

T1 sequence (P02770 25-608): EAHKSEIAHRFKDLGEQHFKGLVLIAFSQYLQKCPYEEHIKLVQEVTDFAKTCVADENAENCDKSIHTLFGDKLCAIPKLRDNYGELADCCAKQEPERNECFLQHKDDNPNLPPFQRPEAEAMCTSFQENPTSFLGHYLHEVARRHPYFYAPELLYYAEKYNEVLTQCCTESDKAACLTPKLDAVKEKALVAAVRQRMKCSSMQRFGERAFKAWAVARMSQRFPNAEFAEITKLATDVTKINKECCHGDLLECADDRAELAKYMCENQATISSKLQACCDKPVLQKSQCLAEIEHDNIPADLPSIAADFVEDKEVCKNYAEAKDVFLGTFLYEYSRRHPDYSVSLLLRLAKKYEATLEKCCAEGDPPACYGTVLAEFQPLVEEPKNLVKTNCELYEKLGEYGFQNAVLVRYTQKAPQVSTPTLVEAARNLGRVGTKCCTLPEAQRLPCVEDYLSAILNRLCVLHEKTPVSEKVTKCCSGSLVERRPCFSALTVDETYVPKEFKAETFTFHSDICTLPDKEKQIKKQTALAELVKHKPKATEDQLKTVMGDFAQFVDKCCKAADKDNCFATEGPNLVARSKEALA

CCOC(=O)CC(SP(=O)(OC)OC)C(=O)OCC (stereo not shown) [Malaoxon]
rat plasma albumin binding (^3H-DFP radiolabelling) reduced from controls (rat plasma albumin [1]): 8±1%

COP(=O)(OC)SCn1c(=O)oc2cc(Cl)cnc21 [Azamethiphos (oxon), S-6-chloro-2,3-dihydro-2-oxo-1,3-oxazolo[4,5-b]pyridin-3-ylmethyl O,O-dimethyl phosphorothioate]
rat plasma albumin binding (^3H-DFP radiolabelling) reduced from controls (rat plasma albumin [1]): 9±1%

CCN(CC)c1nc(C)cc(OP(=S)(OC)OC)n1 [Pirimiphos-methyl, O-2-diethylamino-6-methylpyrimidin-4-yl O,O-dimethyl phosphorothioate]
inhibition of binding of the ^3H-DFP-radiolabelled albumin molecules in vivo (rat plasma albumin [2]): approximately 50%

CCOP(=O)(OCC)OC(=CCl)c1ccc(Cl)cc1Cl [Chlorfenvinphos (oxon), 2-chloro-1-(2,4-dichlorophenyl)vinyl diethyl phosphate]
inhibition of binding of the ^3H-DFP-radiolabelled albumin molecules in vivo (rat plasma albumin [2]): approximately 50%
^3H-DFP radiolabelled albumin molecules bound in vivo (rat plasma albumin [2]; each of the doses 12.5%, 25% and 80% of LD50, 24 h after dosing): approximately 50%
IC50 (rat plasma albumin [1]): ~400 nM
^3H-DFP incorporation into rat plasma albumin versus controls (significance) (rat plasma albumin [1]): significantly different from controls
rat plasma albumin binding (^3H-DFP radiolabelling) reduced from controls (rat plasma albumin [1]): 67±2%
inhibition at 1.25 mg/kg (erythrocyte AChE [3]; rat, po, read-out: erythrocyte AChE inhibition): 22%
clinical signs (rats; 12.5% of LD50 (1.25 mg kg^−1)): not the lower dose
clinical signs (rats; 80% of LD50 (8.0 mg kg^−1)): salivation and muscle fasciculation in all rats

COP(=O)(OC)OC=C(Cl)Cl [dichlorvos]
time for erythrocyte AChE to return to control levels (Erythrocyte AChE [4]): approximately 82 days

CCOC(=O)CC(SP(=S)(OC)OC)C(=O)OCC (stereo not shown) [Malathion, diethyl (dimethoxyphosphinothioylthio)succinate]
erythrocyte AChE inhibition (erythrocyte AChE [3]; rats, oral, (approximately) 25% of LD50, Day 1 (24 h) after dosing): 57%
